Key:
Format in all cases: in vivo
[1] = tested on: ducksalad (Heteranhera limosa); assay: Test B flooded paddy test, visual plant response rating; settings: 250 g ai/ha, Flood, applied to paddy water, 2-leaf stage, evaluated after 13 to 15 days
How it was run: (§1)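 Flooded-pot treatment: water 3 cm over the soil, chemical delivered into that water, depth unchanged for the duration. Assessed by eye versus controls following 13–15 greenhouse days; plants were at 2 leaves when dosed.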

[2] = tested on: barnyardgrass (Echinochloa crus-galli); assay: as above; settings: 250 g ai/ha, Flood, applied to paddy water, 2-leaf stage, evaluated after 13 to 15 days
How it was run: as §1

rice (Oryza sativa) = assay: as above; settings: 250 g ai/ha, Flood, applied to paddy water, 2-leaf stage, evaluated after 13 to 15 days
How it was run: as §1

[3] = tested on: sedge, umbrella (small-flower umbrella sedge, Cyperus difformis); assay: as above; settings: 250 g ai/ha, Flood, applied to paddy water, 2-leaf stage, evaluated after 13 to 15 days
How it was run: as §1

[4] = tested on: foxtail, giant (giant foxtail, Setaria faberii); assay: Test A postemergence, visual plant response rating; settings: for Foxtail, Giant plant response rating: Postemergence, 125 g ai/ha, 0 to 100 scale (0 no effect, 100 complete control)
How it was run: (§2)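 Greenhouse pot test in loam–sand soil mix: compound in a surfactant-containing non-phytotoxic solvent applied preemergence (directed soil spray) or postemergence (one- to two-leaf plants, 2–10 cm). Injury scored visually after ~10 days, 0–100.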

kochia (Kochia scoparia) [5] = assay: Test A postemergence, visual plant response rating; settings: for Kochia plant response rating: Postemergence, 125 g ai/ha, 0 to 100 scale (0 no effect, 100 complete control)
How it was run: as §2

[6] = tested on: Italian ryegrass (Lolium multiflorum); assay: Test A postemergence, visual plant response rating; settings: for Ryegrass, Italian plant response rating: Postemergence, 125 g ai/ha, 0 to 100 scale (0 no effect, 100 complete control)
How it was run: as §2

[7] = tested on: wheat (Triticum aestivum); assay: Test A postemergence, visual plant response rating; settings: for Wheat plant response rating: Postemergence, 125 g ai/ha, 0 to 100 scale (0 no effect, 100 complete control)
How it was run: as §2

[8] = tested on: blackgrass (Alopecurus myosuroides); assay: Test A postemergence, visual plant response rating; settings: for Blackgrass plant response rating: Postemergence, 125 g ai/ha, 0 to 100 scale (0 no effect, 100 complete control)
How it was run: as §2

[9] = tested on: pigweed (Amaranthus retroflexus); assay: Test A postemergence, visual plant response rating; settings: for Pigweed plant response rating: Postemergence, 125 g ai/ha, 0 to 100 scale (0 no effect, 100 complete control)
How it was run: as §2

[10] = tested on: barnyardgrass (Echinochloa crus-galli); assay: Test A postemergence, visual plant response rating; settings: for Barnyardgrass plant response rating: Postemergence, 125 g ai/ha, 0 to 100 scale (0 no effect, 100 complete control)
How it was run: as §2

[11] = tested on: ragweed (common ragweed, Ambrosia elatior); assay: Test A postemergence, visual plant response rating; settings: for Ragweed plant response rating: Postemergence, 125 g ai/ha, 0 to 100 scale (0 no effect, 100 complete control)
How it was run: as §2

corn (Zea mays) = assay: Test A postemergence, visual plant response rating; settings: for Corn plant response rating: Postemergence, 125 g ai/ha, 0 to 100 scale (0 no effect, 100 complete control)
How it was run: as §2

[12] = tested on: galium (catchweed bedstraw, Galium aparine); assay: Test A postemergence, visual plant response rating; settings: for Galium plant response rating: Postemergence, 125 g ai/ha, 0 to 100 scale (0 no effect, 100 complete control)
How it was run: as §2

[13] = tested on: foxtail, giant (giant foxtail, Setaria faberii); assay: Test A preemergence, visual plant response rating; settings: for Foxtail, Giant plant response rating: preemergence, 0 to 100 scale, 0 no effect, 100 complete control; for Foxtail, Giant plant response rating (0 to 100 scale): 500 g ai/ha Preemergence, approx. 10 days
How it was run: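 Ratings 0–100 (100 = complete control), visual, vs untreated controls at ~10 days. Application pre- or postemergence; solvent mixture with surfactant; loam/sand medium.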

kochia (Kochia scoparia) [14] = assay: Test A preemergence, visual plant response rating; settings: for Kochia plant response rating: preemergence, 0 to 100 scale, 0 no effect, 100 complete control; for Kochia plant response rating (0 to 100 scale): 500 g ai/ha Preemergence, approx. 10 days
How it was run: as §2

[15] = tested on: Italian ryegrass (Lolium multiflorum); assay: Test A preemergence, visual plant response rating; settings: for Ryegrass, Italian plant response rating: preemergence, 0 to 100 scale, 0 no effect, 100 complete control; for Ryegrass, Italian plant response rating (0 to 100 scale): 500 g ai/ha Preemergence, approx. 10 days
How it was run: as §2

[16] = tested on: pigweed (Amaranthus retroflexus); assay: Test A preemergence, visual plant response rating; settings: for Pigweed plant response rating: preemergence, 0 to 100 scale, 0 no effect, 100 complete control; for Pigweed plant response rating (0 to 100 scale): 500 g ai/ha Preemergence, approx. 10 days
How it was run: as §2

[17] = tested on: barnyardgrass (Echinochloa crus-galli); assay: Test A preemergence, visual plant response rating; settings: for Barnyardgrass plant response rating: preemergence, 0 to 100 scale, 0 no effect, 100 complete control; for Barnyardgrass plant response rating (0 to 100 scale): 500 g ai/ha Preemergence, approx. 10 days
How it was run: as §2

[18] = tested on: ragweed (common ragweed, Ambrosia elatior); assay: Test A preemergence, visual plant response rating; settings: for Ragweed plant response rating: preemergence, 0 to 100 scale, 0 no effect, 100 complete control; for Ragweed plant response rating (0 to 100 scale): 500 g ai/ha Preemergence, approx. 10 days
How it was run: as §2

[19] = 500 g ai/ha, postemergence, 0 is no effect, 100 is complete control
[20] = 1000 g ai/ha Postemergence, approx. 10 days

CCc1ccccc1C(=NOC)c1c(O)c(C)nn(C)c1=O [Compound 37]
30: Foxtail, Giant plant response rating [4] | Corn plant response rating (0 to 100 scale) (corn (Zea mays); [19]) | Foxtail, Giant plant response rating ([13]; 125 g ai/ha)
20: Barnyardgrass plant response rating (0 to 100 scale) [10, 19] | Barnyardgrass plant response rating (0 to 100 scale) [17]
60: Kochia plant response rating (kochia (Kochia scoparia) [5]) | Blackgrass plant response rating [8] | Ragweed plant response rating [11] | Ryegrass, Italian plant response rating (0 to 100 scale) [15]
80: Kochia plant response rating (0 to 100 scale) (kochia (Kochia scoparia) [5]; [19]) | Ryegrass, Italian plant response rating [6] | Blackgrass plant response rating (0 to 100 scale) [8, 19] | Ragweed plant response rating (0 to 100 scale) [11, 19] | Galium plant response rating [12] | Foxtail, Giant plant response rating (0 to 100 scale) [13] | Kochia plant response rating (0 to 100 scale) (kochia (Kochia scoparia) [14]) | Ragweed plant response rating (0 to 100 scale) [18]
90: Ryegrass, Italian plant response rating (0 to 100 scale) [6, 19] | Pigweed plant response rating (0 to 100 scale) [9, 19] | Galium plant response rating (0 to 100 scale) [12, 19] | Pigweed plant response rating (0 to 100 scale) [16]
0: Plant response rating, Ducksalad (0 to 100 scale, 0 is no effect, 100 is complete control) [1] | Plant response rating, Barnyardgrass (0 to 100 scale, 0 is no effect, 100 is complete control) [2] | Plant response rating, Rice (0 to 100 scale, 0 is no effect, 100 is complete control) (rice (Oryza sativa)) | Plant response rating, Sedge, Umbrella (0 to 100 scale, 0 is no effect, 100 is complete control) [3] | Wheat plant response rating [7] | Corn plant response rating (corn (Zea mays)) | Kochia plant response rating (kochia (Kochia scoparia) [14]; 125 g ai/ha) | Barnyardgrass plant response rating ([17]; 125 g ai/ha)
10: Wheat plant response rating (0 to 100 scale) [7, 19] | Barnyardgrass plant response rating [10] | Ragweed plant response rating ([18]; 125 g ai/ha)
40: Ryegrass, Italian plant response rating ([15]; 125 g ai/ha) | Pigweed plant response rating ([16]; 125 g ai/ha)
70: Foxtail, Giant plant response rating (0 to 100 scale) [4, 19] | Pigweed plant response rating [9]

CO/N=C(/c1c(O)c(C)nn(C)c1=O)c1ccc(F)c2ccccc12 [Compound 75]
20: Barnyardgrass plant response rating [10] | Corn plant response rating (0 to 100 scale) (corn (Zea mays); [19])
30: Barnyardgrass plant response rating ([17]; 125 g ai/ha)
50: Foxtail, Giant plant response rating [4]
10: Corn plant response rating (corn (Zea mays)) | Kochia plant response rating (kochia (Kochia scoparia) [14]; 125 g ai/ha)
90: Kochia plant response rating (0 to 100 scale) (kochia (Kochia scoparia) [5]; [19]) | Ryegrass, Italian plant response rating [6] | Blackgrass plant response rating [8] | Pigweed plant response rating (0 to 100 scale) [9, 19] | Ragweed plant response rating [11] | Kochia plant response rating (0 to 100 scale) (kochia (Kochia scoparia) [14]) | Pigweed plant response rating (0 to 100 scale) [16] | Barnyardgrass plant response rating (0 to 100 scale) [17]
60: Wheat plant response rating [7] | Pigweed plant response rating ([16]; 125 g ai/ha)
0: Plant response rating, Ducksalad (0 to 100 scale, 0 is no effect, 100 is complete control) [1] | Plant response rating, Barnyardgrass (0 to 100 scale, 0 is no effect, 100 is complete control) [2] | Plant response rating, Rice (0 to 100 scale, 0 is no effect, 100 is complete control) (rice (Oryza sativa)) | Plant response rating, Sedge, Umbrella (0 to 100 scale, 0 is no effect, 100 is complete control) [3]
70: Kochia plant response rating (kochia (Kochia scoparia) [5]) | Pigweed plant response rating [9] | Barnyardgrass plant response rating (0 to 100 scale) [10, 19] | Foxtail, Giant plant response rating ([13]; 125 g ai/ha)
80: Foxtail, Giant plant response rating (0 to 100 scale) [4, 19] | Wheat plant response rating (0 to 100 scale) [7, 19] | Ragweed plant response rating ([18]; 125 g ai/ha)
100: Ryegrass, Italian plant response rating (0 to 100 scale) [6, 19] | Blackgrass plant response rating (0 to 100 scale) [8, 19] | Ragweed plant response rating (0 to 100 scale) [11, 19] | Galium plant response rating (0 to 100 scale) [12, 19] | Galium plant response rating [12] | Foxtail, Giant plant response rating (0 to 100 scale) [13] | Ryegrass, Italian plant response rating ([15]; 125 g ai/ha) | Ryegrass, Italian plant response rating (0 to 100 scale) [15] | Ragweed plant response rating (0 to 100 scale) [18]

CCON=C(c1cccc(C)c1)c1c(O)c(C)nn(C)c1=O (mixture of isomers) [Compound 6]
20: Kochia plant response rating (kochia (Kochia scoparia) [14]; 1000 g ai/ha)
30: Barnyardgrass plant response rating (0 to 100 scale) [10, 20] | Foxtail, Giant plant response rating ([13]; 1000 g ai/ha) | Barnyardgrass plant response rating ([17]; 1000 g ai/ha)
80: Kochia plant response rating (0 to 100 scale) (kochia (Kochia scoparia) [5]; [20]) | Pigweed plant response rating (0 to 100 scale) [9, 20] | Ryegrass, Italian plant response rating ([15]; 1000 g ai/ha)
70: Ryegrass, Italian plant response rating (0 to 100 scale) [6, 20] | Pigweed plant response rating ([16]; 1000 g ai/ha)
50: Foxtail, Giant plant response rating (0 to 100 scale) [4, 20] | Ragweed plant response rating ([18]; 1000 g ai/ha)
0: Plant response rating, Ducksalad (0 to 100 scale, 0 is no effect, 100 is complete control) [1] | Plant response rating, Barnyardgrass (0 to 100 scale, 0 is no effect, 100 is complete control) [2] | Plant response rating, Rice (0 to 100 scale, 0 is no effect, 100 is complete control) (rice (Oryza sativa)) | Plant response rating, Sedge, Umbrella (0 to 100 scale, 0 is no effect, 100 is complete control) [3] | Wheat plant response rating (0 to 100 scale) [7, 20] | Corn plant response rating (0 to 100 scale) (corn (Zea mays); [20])
10: Blackgrass plant response rating (0 to 100 scale) [8, 20]
90: Ragweed plant response rating (0 to 100 scale) [11, 20] | Galium plant response rating (0 to 100 scale) [12, 20]

Cc1cccc(/C(=N/OC(C)C)c2c(O)c(C)nn(C)c2=O)c1 [Compound 18]
80: Ragweed plant response rating ([18]; 1000 g ai/ha)
0: Plant response rating, Ducksalad (0 to 100 scale, 0 is no effect, 100 is complete control) [1] | Plant response rating, Barnyardgrass (0 to 100 scale, 0 is no effect, 100 is complete control) [2] | Plant response rating, Rice (0 to 100 scale, 0 is no effect, 100 is complete control) (rice (Oryza sativa)) | Plant response rating, Sedge, Umbrella (0 to 100 scale, 0 is no effect, 100 is complete control) [3] | Corn plant response rating (0 to 100 scale) (corn (Zea mays); [20])
50: Kochia plant response rating (kochia (Kochia scoparia) [14]; 1000 g ai/ha)
90: Pigweed plant response rating (0 to 100 scale) [9, 20] | Galium plant response rating (0 to 100 scale) [12, 20]
20: Wheat plant response rating (0 to 100 scale) [7, 20] | Foxtail, Giant plant response rating ([13]; 1000 g ai/ha)
100: Ragweed plant response rating (0 to 100 scale) [11, 20] | Pigweed plant response rating ([16]; 1000 g ai/ha)
40: Foxtail, Giant plant response rating (0 to 100 scale) [4, 20]
30: Kochia plant response rating (0 to 100 scale) (kochia (Kochia scoparia) [5]; [20]) | Barnyardgrass plant response rating ([17]; 1000 g ai/ha)
10: Blackgrass plant response rating (0 to 100 scale) [8, 20] | Barnyardgrass plant response rating (0 to 100 scale) [10, 20]
60: Ryegrass, Italian plant response rating (0 to 100 scale) [6, 20] | Ryegrass, Italian plant response rating ([15]; 1000 g ai/ha)

— patent US20210045385A1, “PYRIDAZINONE-SUBSTITUTED KETOXIMES AS HERBICIDES” (FMC Corporation, priority 2018, published 2021)
